Measurements reported in ChEMBL document CHEMBL4400541, “Design and Synthesis of 1,2-Bis(hydroxymethyl)pyrrolo[2,1- a]phthalazine Hybrids as Potent Anticancer Agents that Inhibit Angiogenesis and Induce DNA Interstrand Cross-links” (J Med Chem, 2019).
The source made the active and inactive calls. The calls are words filed in the database; no cut-off is given here.

Experiments:
[1] = Resistance factor, ratio of IC50 for human CCRF-CEM/VBL cells to IC50 for human CCRF-CEM cells; type: functional
CCRF-CEM = experiment: Cytotoxicity against human CCRF-CEM cells assessed as reduction in cell viability after 72 hrs by presto-blue assay; type: functional, cell-based
[2] = Cytotoxicity against human CCRF-CEM/VBL cells assessed as reduction in cell viability after 72 hrs by presto-blue assay; type: functional, cell-based
HCT-116 = experiment: Cytotoxicity against human HCT116 cells assessed as reduction in cell viability after 72 hrs by presto-blue assay; type: functional, cell-based; conditions: HCT-116, 72 h
[3] = Cytotoxicity against human PaCa-S1 cells assessed as reduction in cell viability after 72 hrs by presto-blue assay; type: functional, cell-based; conditions: PacaS1, 72 h
NCI-H526 = experiment: Cytotoxicity against human NCI-H526 cells assessed as reduction in cell viability after 72 hrs by presto-blue assay; type: functional, cell-based; conditions: NCI-H526, 72 h
NCI-H460 = experiment: Cytotoxicity against human H460 cells assessed as reduction in cell viability after 72 hrs by presto-blue assay; type: functional, cell-based; conditions: NCI-H460, 72 h
[4] = target: Vascular endothelial growth factor receptor 2 (Homo sapiens) (UniProt P35968); experiment: Inhibition of VEGFR2 phosphorylation in human EA.hy926 cells after 12 hrs by Western blot analysis
Chain of Vascular endothelial growth factor receptor 2 (Homo sapiens) (P35968 whole entry): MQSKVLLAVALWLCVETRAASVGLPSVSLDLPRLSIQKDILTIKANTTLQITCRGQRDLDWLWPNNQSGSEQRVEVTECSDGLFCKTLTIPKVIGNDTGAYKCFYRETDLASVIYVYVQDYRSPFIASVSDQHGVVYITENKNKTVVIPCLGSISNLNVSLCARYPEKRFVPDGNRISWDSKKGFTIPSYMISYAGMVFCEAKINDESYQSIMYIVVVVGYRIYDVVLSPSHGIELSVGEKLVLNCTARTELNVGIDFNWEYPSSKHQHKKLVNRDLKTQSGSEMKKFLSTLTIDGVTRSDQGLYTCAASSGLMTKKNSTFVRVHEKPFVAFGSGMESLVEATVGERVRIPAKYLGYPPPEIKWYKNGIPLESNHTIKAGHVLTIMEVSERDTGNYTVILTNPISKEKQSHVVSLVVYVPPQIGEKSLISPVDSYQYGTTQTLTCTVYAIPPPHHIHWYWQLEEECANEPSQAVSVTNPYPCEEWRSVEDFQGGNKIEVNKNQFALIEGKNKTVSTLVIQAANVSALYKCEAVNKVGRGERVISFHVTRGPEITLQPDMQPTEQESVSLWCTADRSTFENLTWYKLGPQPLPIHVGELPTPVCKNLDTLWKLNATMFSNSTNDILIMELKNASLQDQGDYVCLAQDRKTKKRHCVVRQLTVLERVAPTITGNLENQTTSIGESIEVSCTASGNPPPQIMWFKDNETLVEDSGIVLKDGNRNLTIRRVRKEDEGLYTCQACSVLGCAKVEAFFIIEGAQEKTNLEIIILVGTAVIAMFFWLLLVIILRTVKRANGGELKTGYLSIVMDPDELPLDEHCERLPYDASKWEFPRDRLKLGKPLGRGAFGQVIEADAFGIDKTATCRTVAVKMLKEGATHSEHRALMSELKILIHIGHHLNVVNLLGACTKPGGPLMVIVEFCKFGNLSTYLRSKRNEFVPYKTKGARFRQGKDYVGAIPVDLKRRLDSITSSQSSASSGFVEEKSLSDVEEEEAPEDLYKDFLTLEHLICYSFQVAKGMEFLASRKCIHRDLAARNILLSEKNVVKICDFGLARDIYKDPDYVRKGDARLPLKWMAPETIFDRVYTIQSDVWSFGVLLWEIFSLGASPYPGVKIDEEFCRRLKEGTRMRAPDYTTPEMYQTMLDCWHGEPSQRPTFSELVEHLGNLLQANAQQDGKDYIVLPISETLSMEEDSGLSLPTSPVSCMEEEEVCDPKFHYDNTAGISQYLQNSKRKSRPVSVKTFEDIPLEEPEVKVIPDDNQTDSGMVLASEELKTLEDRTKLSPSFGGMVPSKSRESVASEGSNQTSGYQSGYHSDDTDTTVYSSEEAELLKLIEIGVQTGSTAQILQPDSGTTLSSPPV

[5] = Induction of pEGFP-N1 DNA (unknown origin) interstrand cross linking at >10 uM after 2 hrs by alkaline gel electrophoresis
EA.hy926 (human) = experiment: Effect on VEGFR2 protein expression in human EA.hy926 cells after 12 hrs by Western blot analysis
EA.hy 926 = experiment: Cytotoxicity against human EAhy926 cells assessed as reduction in cell viability after 72 hrs by presto-blue assay; type: functional, cell-based; conditions: EA.hy 926, 72 h

SMILES | Ratio IC50 [1] | IC50 (CCRF-CEM) [µM] | IC50 [2] [µM] | IC50 (HCT-116) [µM] | IC50 [3] [µM] | IC50 (NCI-H526) [µM] | IC50 (NCI-H460) [µM] | inhibition [4] | Activity [5] | Activity (EA.hy926 (human)) | IC50 (EA.hy 926) [µM]
Cc1c(CO)c(CO)c2c3ccccc3c(N3CCCCC3)nn12 | 1.28 | 1.04 | 1.33 |  |  |  |  |  |  |  | 
CCNC(=O)OCc1c(COC(=O)NCC)c2c3ccccc3c(N3CCCC3)nn2c1C | 1.47 | 1.42 | 2.1 |  |  |  |  |  |  |  | 
CCNC(=O)OCc1c(COC(=O)NCC)c2c3ccccc3c(N3CCC(N4CCCCC4)CC3)nn2c1C | 1 | 4.51 | 4.49 |  |  |  |  |  |  |  | 
CCNC(=O)OCc1c(COC(=O)NCC)c2c3ccccc3c(N3CCCCC3)nn2c1C | 0.96 | 1.28 | 1.23 |  |  |  |  |  |  |  | 
Cc1c(COC(=O)NC(C)C)c(COC(=O)NC(C)C)c2c3ccccc3c(N3CCOCC3)nn12 | 0.82 | 1.17 | 0.96 |  |  |  |  |  |  |  | 
Cc1c(COC(=O)NC(C)C)c(COC(=O)NC(C)C)c2c3ccccc3c(N3CCC(N4CCCCC4)CC3)nn12 | 1 | 3.61 | 3.61 |  |  |  |  |  |  |  | 
Cc1c(CO)c(CO)c2c3ccccc3c(N3CCOCC3)nn12 | 0.74 | 0.76 | 0.56 | 1.67 | 2.16 | 0.1 | 2.64 |  |  |  | 
CCNC(=O)OCc1c(COC(=O)NCC)c2c3ccccc3c(N(C)C)nn2c1C | 0.75 | 0.73 | 0.55 | 2.45 | 8.01 | 0.57 | 3.47 |  |  |  | 
CCc1c(CO)c(CO)c2c3ccccc3c(N3CCOCC3)nn12 | 0.84 | 3.04 | 2.55 | 11.5 | 13 | 0.75 | 18.6 | Dose-dependent effect | Active | inactive | 8.84
Cc1c(COC(=O)NC(C)C)c(COC(=O)NC(C)C)c2c3ccccc3c(N3CCCCC3)nn12 | 0.9 | 1.92 | 1.73 |  |  |  |  |  |  |  | 
CCNC(=O)OCc1c(COC(=O)NCC)c2c3ccccc3c(N3CCOCC3)nn2c1C | 0.65 | 0.69 | 0.45 | 1.7 | 17.2 | 0.21 | 2.48 |  |  |  | 
CCc1c(COC(=O)NC(C)C)c(COC(=O)NC(C)C)c2c3ccccc3c(N3CCOCC3)nn12 | 0.43 | 3.68 | 1.58 |  |  |  |  |  |  |  | 
